Data from the supplement of paper PMC4862054.

Experiments:
Test in all cases: normalised response (% of control), CellTiter-Glo; higher = more viable cells (100 = DMSO, 0 = benzethonium chloride kill control)
Settings in all cases: incubation time: 72 h
[1] = test system: DU-4475
Outline: (§1)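 Each entry is the normalised signal at a single concentration within a series. The series comprised 5 concentrations in 10-fold steps over a compound-specific 10,000-fold range, placed in 384-well plates into which breast cancer cell lines were seeded as 20 µl suspension and incubated 72 h. CellTox Green (485/520 nm) fluorescence and then CellTiter-Glo luminescence were read, with signals normalised per plate to 0.1 % DMSO (100) and a positive kill control (0).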

[2] = test system: CAL-85-1
Outline: as §1

[3] = test system: MDA-MB-453
Outline: as §1

[4] = test system: BT-474
Outline: as §1

[5] = test system: HDQ-P1
Outline: as §1

[6] = test system: BT-549
Outline: as §1

[7] = test system: HCC1937
Outline: as §1

[8] = test system: HCC1599
Outline: as §1

[9] = test system: CAL-120
Outline: as §1

[10] = test system: Hs578T
Outline: as §1

[11] = test system: CAL-148
Outline: as §1

[12] = test system: MDA-MB-468
Outline: as §1

[13] = test system: SK-BR-3
Outline: as §1

[14] = test system: MCF-10A
Outline: as §1

[15] = test system: MDA-MB-231
Outline: as §1

[16] = test system: MDA-MB-436
Outline: as §1

[17] = test system: HCC1143
Outline: as §1

[18] = test system: CAL-51
Outline: as §1

[19] = test system: MFM-223
Outline: as §1

Row | Structure (SMILES) | normalised response [1] [%] | normalised response [2] [%] | normalised response [3] [%] | normalised response [4] [%] | normalised response [5] [%] | normalised response [6] [%] | normalised response [7] [%] | normalised response [8] [%] | normalised response [9] [%] | normalised response [10] [%] | normalised response [11] [%] | normalised response [12] [%] | normalised response [13] [%] | normalised response [14] [%] | normalised response [15] [%] | normalised response [16] [%] | normalised response [17] [%] | normalised response [18] [%] | normalised response [19] [%]
1 | CN(c1ccccc1CNc1nc(Nc2ccc3c(c2)CC(=O)N3)ncc1C(F)(F)F)S(C)(=O)=O (1 nM) | 95.9 | 94.9 | 95.4 | 95.5 | 101 | 100 | 99.5 | 98.4 | 93 | 97.8 | 91.6 | 90.3 | 96 | 96.3 | 95.4 | 106 | 93 | 96.2 | 89.5
2 | COc1ncc(-c2ccc3nccc(-c4ccnnc4)c3c2)cc1NS(=O)(=O)c1ccc(F)cc1F (1 nM) | 103 | 101 | 98.2 | 91.6 | 81.3 | 93.5 | 95.3 | 95.3 | 93 | 101 | 105 | 109 | 84.6 | 94.2 | 92.9 | 93.1 | 101 | 111 | 109
3 | Nc1nccc(-c2c(-c3ccc(F)cc3)ncn2C2CCCCC2)n1 (1 nM) | 102 | 98.8 | 95.5 | 97.9 | 101 | 109 | 105 | 104 | 95.7 | 104 | 105 | 94.1 | 108 | 110 | 105 | 100 | 109 | 119 | 102
4 | CN(c1ccccc1CNc1nc(Nc2ccc3c(c2)CC(=O)N3)ncc1C(F)(F)F)S(C)(=O)=O (10 nM) | 94.8 | 94.6 | 96.6 | 92.1 | 101 | 97 | 97.5 | 91.4 | 94.4 | 92 | 101 | 84.8 | 111 | 100 | 87.9 | 92 | 99.5 | 102 | 91.4
5 | C[C@@]1(C(=O)Nc2ccc(F)nc2)CCCN1c1nc(Nc2cc(C3CC3)n[nH]2)c2cccn2n1 (10 nM) | 99.5 | 91.6 | 92.8 | 90.7 | 85.4 | 88 | 95.4 | 96.1 | 91.2 | 92.4 | 87.3 | 86.8 | 71.5 | 67.5 | 88.1 | 92.5 | 97.5 | 99.3 | 83.4
6 | Nc1nccc(-c2c(-c3ccc(F)cc3)ncn2C2CCCCC2)n1 (10 nM) | 107 | 106 | 106 | 106 | 102 | 90.7 | 100 | 86.8 | 102 | 107 | 116 | 96 | – | 111 | 100 | 95.7 | 110 | 104 | 110
7 | COc1c(C)cnc(Cn2cnc3c(Cl)nc(N)nc32)c1C [BIIB021] (10 nM) | 102 | 96.9 | 102 | 101 | 97.5 | 99.6 | 105 | 109 | 99 | 97.6 | 94.6 | 102 | – | 96.6 | 99.3 | 101 | 108 | 116 | 102
8 | CC(C)C[C@H](NC(=O)[C@H](Cc1ccccc1)NC(=O)c1cnccn1)B(O)O [Bortezomib] (1 nM) | 101 | 98.8 | 97 | 99.2 | 101 | 98.2 | 98.8 | 108 | 102 | 109 | 102 | 95 | – | 102 | 104 | 90.8 | 94.2 | 77.6 | 103
9 | CS(=O)(=O)OCCCCOS(C)(=O)=O [Busulfan] (100 nM) | 109 | 98.1 | 109 | 101 | 99.7 | 97.2 | 97.9 | 94.5 | 99.1 | 105 | 101 | 106 | 97.5 | 108 | 101 | 97.2 | 112 | 121 | 112
10 | C#Cc1cccc(Nc2ncnc3cc(OC)c(OCCCCCCC(=O)NO)cc23)c1 [CUDC-101] (10 nM) | 99 | 92.6 | 103 | 98 | 95.8 | 101 | 104 | 93.9 | 99.8 | 96.4 | 87.5 | 101 | – | 97.5 | 98.1 | 105 | 99.9 | 84.9 | 100
11 | COc1cccc2c1C(=O)c1c(O)c3c(c(O)c1C2=O)C[C@@](O)(C(C)=O)C[C@@H]3O[C@H]1C[C@H](N)[C@H](O)[C@H](C)O1 [Daunorubicin] (1 nM) | 107 | 96.2 | 108 | 106 | 104 | 94.2 | 99.9 | 109 | 96.9 | 112 | 109 | 105 | – | 107 | 105 | 101 | 109 | 122 | 108
12 | CN1CCN(c2ccc3nc(-c4c(N)c5c(F)cccc5[nH]c4=O)[nH]c3c2)CC1 [Dovitinib] (10 nM) | 97.8 | 91.5 | 88.4 | 102 | 96.1 | 91.8 | 101 | 102 | 95.6 | 97.6 | 94.9 | 97 | – | 98.3 | 98.6 | 98.1 | 102 | 77.6 | 95.1
13 | O=c1[nH]c(=O)n([C@H]2C[C@H](O)[C@@H](CO)O2)cc1F [Floxuridine] (10 nM) | 98.1 | 104 | 111 | 102 | 90.2 | 100 | 98.2 | 93.1 | 99.5 | 92.3 | 110 | 96.7 | – | 105 | 105 | 92.5 | 109 | 122 | 111
14 | O=c1[nH]cc(F)c(=O)[nH]1 [Fluorouracil] (10 nM) | 110 | 96.1 | 101 | 103 | 102 | 107 | 106 | 99.3 | 95.1 | 110 | 112 | 105 | – | 111 | 107 | 99.1 | 121 | 104 | 113
15 | C[C@@H]1C=C2C(=O)O[C@@H]3CC[C@H](C1)[C@]23O [Galiellalactone] (50 nM) | 105 | 102 | 108 | 104 | 104 | 98.9 | 102 | 98.2 | 102 | 104 | 111 | 106 | 112 | 114 | 104 | 106 | 107 | 101 | 114
16 | COC1=C2C[C@@H](C)C[C@H](OC)[C@H](O)[C@@H](C)/C=C(\C)[C@H](OC(N)=O)[C@@H](OC)/C=C\C=C(/C)C(=O)NC(=CC1=O)C2=O [Geldanamycin] (10 nM) | 105 | 99.6 | 106 | 106 | 100 | 97.3 | 99.9 | 101 | 102 | 108 | 113 | 105 | 110 | 106 | 105 | 104 | 101 | 112 | 105
17 | CS(=O)(=O)CCNCc1ccc(-c2ccc3ncnc(Nc4ccc(OCc5cccc(F)c5)c(Cl)c4)c3c2)o1 [Lapatinib] (0.1 nM) | 109 | 106 | 121 | 102 | 101 | 101 | 98.8 | 90.2 | 96 | 101 | 110 | 112 | 114 | 98.4 | 100 | 86.2 | 99.2 | 110 | 104
18 | COc1ccc(C2=N[C@@H](c3ccc(Cl)cc3)[C@@H](c3ccc(Cl)cc3)N2C(=O)N2CCNC(=O)C2)c(OC(C)C)c1 [Nutlin-3] (10 nM) | 104 | 101 | 100 | 97.4 | 100 | 101 | 103 | 104 | 98.3 | 104 | 102 | 105 | – | 99.6 | 100 | 99.9 | 106 | 86.3 | 103
19 | CC(=O)O[C@H]1C(=O)[C@@]2(C)[C@H]([C@H](OC(=O)c3ccccc3)[C@]3(O)C[C@H](OC(=O)[C@H](O)[C@@H](NC(=O)c4ccccc4)c4ccccc4)C(C)=C1C3(C)C)[C@]1(OC(C)=O)CO[C@@H]1C[C@@H]2O [Paclitaxel] (1 nM) | 92.2 | 99.5 | 92.8 | 89.5 | 89.8 | 93.1 | 94.7 | 97.8 | 91.6 | 88.8 | 89.2 | 96.1 | – | 81.5 | 88.6 | 91.4 | 90.4 | 129 | 89.5
20 | C[C@@H]1CCN(C(=O)CC#N)C[C@@H]1N(C)c1ncnc2[nH]ccc12 [Tofacitinib] (5 nM) | 110 | 112 | 120 | 114 | 103 | 97.2 | 96.3 | 115 | 95.7 | 103 | 111 | 104 | – | 108 | 103 | 104 | 105 | 122 | 101
21 | FC(F)c1nc2ccccc2n1-c1nc(N2CCOCC2)nc(N2CCOCC2)n1 [ZSTK474] (10 nM) | 101 | 92.5 | 101 | 98.2 | 95 | 95.4 | 99.8 | 105 | 96.9 | 101 | 99.7 | 100 | – | 103 | 89.9 | 91.3 | 97.6 | 75.5 | 100
